Data reported in ChEMBL document CHEMBL1177794, “Broad spectrum alkynyl inhibitors of T315I Bcr-Abl” (Bioorg Med Chem Lett, 2010).

Key:
[1] = target: Ephrin type-A receptor 4 (Homo sapiens) (UniProt P54764); experiment: Inhibition of EPHA4 at 10 uM; details: values are per cent of control
[2] = target: Serine/threonine-protein kinase 38 (Homo sapiens) (UniProt Q15208); experiment: Inhibition of NDR1 at 10 uM
[3] = system: Tyrosine-protein kinase ABL1 (Homo sapiens), P00519 [E255K]; experiment: Inhibition of phosphorylated ABL1 E255K mutant at 10 uM; details: values are per cent of control
[4] = system: Epidermal growth factor receptor (Homo sapiens), P00533 [L858R,T790M]; experiment: Inhibition of EGFR L858R, T790M mutant at 10 uM; values are per cent of control
[5] = system: Hepatocyte growth factor receptor (Homo sapiens), P08581 [M1250T]; experiment: Inhibition of MET M1250T mutant at 10 uM
[6] = target: Tyrosine-protein kinase Lyn (Homo sapiens) (UniProt P07948); experiment: Inhibition of LYN at 10 uM; values are per cent of control
[7] = target: Cyclin-dependent kinase 5 (Homo sapiens) (UniProt Q00535); experiment: Inhibition of CDK5 at 10 uM; values are per cent of control
[8] = target: Serine/threonine-protein kinase DCLK2 (Homo sapiens) (UniProt Q8N568); experiment: Inhibition of DCAMKL2 at 10 uM; details: values are per cent of control
[9] = target: Serine/threonine-protein kinase PAK 5 (Homo sapiens) (UniProt Q9P286); experiment: Inhibition of PAK7 at 10 uM; details: values are per cent of control
[10] = target: Serine/threonine-protein kinase Nek3 (Homo sapiens) (UniProt P51956); experiment: Inhibition of NEK3 at 10 uM
[11] = target: Mitogen-activated protein kinase 12 (Homo sapiens) (UniProt P53778); experiment: Inhibition of p38-gamma at 10 uM; values are per cent of control
[12] = target: Myosin light chain kinase, smooth muscle (Homo sapiens) (UniProt Q15746); experiment: Inhibition of MLCK at 10 uM; values are per cent of control
[13] = system: Phosphatidylinositol 4,5-bisphosphate 3-kinase catalytic subunit alpha isoform (Homo sapiens), P42336 [E542K]; experiment: Inhibition of PIK3CA E542K mutant at 10 uM
[14] = target: Uncharacterized serine/threonine-protein kinase SBK3 (Homo sapiens) (UniProt P0C264); experiment: Inhibition of SgK110 at 10 uM
[15] = target: Calcium/calmodulin-dependent protein kinase type IV (Homo sapiens) (UniProt Q16566); experiment: Inhibition of CAMK4 at 10 uM; details: values are per cent of control
[16] = target: Fibroblast growth factor receptor 1 (Homo sapiens) (UniProt P11362); experiment: Inhibition of FGFR1 at 10 uM; details: values are per cent of control
[17] = target: Tyrosine-protein kinase JAK2 (Homo sapiens) (UniProt O60674); experiment: Inhibition of JAK2 JH1 catalytic domain at 10 uM; values are per cent of control
[18] = target: Mitogen-activated protein kinase kinase kinase 13 (Homo sapiens) (UniProt O43283); experiment: Inhibition of LZK at 10 uM; values are per cent of control
[19] = system: Receptor-type tyrosine-protein kinase FLT3 (Homo sapiens), P36888 [R834Q]; experiment: Inhibition of FLT3 R834Q mutant at 10 uM; details: values are per cent of control
[20] = target: Tyrosine-protein kinase Fer (Homo sapiens) (UniProt P16591); experiment: Inhibition of FER at 10 uM; details: values are per cent of control
[21] = target: Hormonally up-regulated neu tumor-associated kinase (Homo sapiens) (UniProt P57058); experiment: Inhibition of HUNK at 10 uM; details: values are per cent of control
[22] = target: Dual specificity protein kinase CLK2 (Homo sapiens) (UniProt P49760); experiment: Inhibition of CLK2 at 10 uM; details: values are per cent of control
[23] = target: NUAK family SNF1-like kinase 2 (Homo sapiens) (UniProt Q9H093); experiment: Inhibition of SNARK at 10 uM
[24] = target: Cyclin-dependent kinase-like 3 (Homo sapiens) (UniProt Q8IVW4); experiment: Inhibition of CDKL3 at 10 uM; details: values are per cent of control
[25] = target: Casein kinase II subunit alpha (Homo sapiens) (UniProt P68400); experiment: Inhibition of CSNK2A1 at 10 uM; details: values are per cent of control
[26] = target: Serine/threonine-protein kinase 4 (Homo sapiens) (UniProt Q13043); experiment: Inhibition of MST1 at 10 uM
[27] = target: Serine/threonine-protein kinase TNNI3K (Homo sapiens) (UniProt Q59H18); experiment: Inhibition of TNNI3K at 10 uM; details: values are per cent of control
[28] = target: Myosin light chain kinase family member 4 (Homo sapiens) (UniProt Q86YV6); experiment: Inhibition of MYLK4 at 10 uM
[29] = system: Mast/stem cell growth factor receptor Kit (Homo sapiens), P10721 [V559D]; experiment: Inhibition of KIT V559D mutant at 10 uM; details: values are per cent of control
[30] = target: Dual specificity mitogen-activated protein kinase kinase 1 (Homo sapiens) (UniProt Q02750); experiment: Inhibition of MEK1 at 10 uM; details: values are per cent of control
[31] = target: Fibroblast growth factor receptor 2 (Homo sapiens) (UniProt P21802); experiment: Inhibition of FGFR2 at 10 uM; details: values are per cent of control
[32] = target: Mitogen-activated protein kinase 1 (Homo sapiens) (UniProt P28482); experiment: Inhibition of ERK2 at 10 uM; values are per cent of control
[33] = target: Calcium/calmodulin-dependent protein kinase kinase 1 (Homo sapiens) (UniProt Q8N5S9); experiment: Inhibition of CAMKK1 at 10 uM; details: values are per cent of control
[34] = target: Serine/threonine-protein kinase 38-like (Homo sapiens) (UniProt Q9Y2H1); experiment: Inhibition of NDR2 at 10 uM
[35] = target: Tyrosine-protein kinase ITK/TSK (Homo sapiens) (UniProt Q08881); experiment: Inhibition of ITK at 10 uM; values are per cent of control
[36] = target: Macrophage-stimulating protein receptor (Homo sapiens) (UniProt Q04912); experiment: Inhibition of MST1R at 10 uM
[37] = target: Death-associated protein kinase 2 (Homo sapiens) (UniProt Q9UIK4); experiment: Inhibition of DAPK2 at 10 uM; details: values are per cent of control
[38] = target: Mitogen-activated protein kinase kinase kinase 4 (Homo sapiens) (UniProt Q9Y6R4); experiment: Inhibition of MAP3K4 at 10 uM; details: values are per cent of control
[39] = system: Tyrosine-protein kinase ABL1 (Homo sapiens), P00519 [H396P]; experiment: Inhibition of phosphorylated ABL1 H396P mutant at 10 uM; details: values are per cent of control
[40] = target: Activin receptor type-2B (Homo sapiens) (UniProt Q13705); experiment: Inhibition of ACVR2B at 10 uM; values are per cent of control
[41] = target: Serine/threonine-protein kinase SIK2 (Homo sapiens) (UniProt Q9H0K1); experiment: Inhibition of SIK2 at 10 uM

Sequence of Fibroblast growth factor receptor 2 (Homo sapiens) (P21802 22-821 limits assumed): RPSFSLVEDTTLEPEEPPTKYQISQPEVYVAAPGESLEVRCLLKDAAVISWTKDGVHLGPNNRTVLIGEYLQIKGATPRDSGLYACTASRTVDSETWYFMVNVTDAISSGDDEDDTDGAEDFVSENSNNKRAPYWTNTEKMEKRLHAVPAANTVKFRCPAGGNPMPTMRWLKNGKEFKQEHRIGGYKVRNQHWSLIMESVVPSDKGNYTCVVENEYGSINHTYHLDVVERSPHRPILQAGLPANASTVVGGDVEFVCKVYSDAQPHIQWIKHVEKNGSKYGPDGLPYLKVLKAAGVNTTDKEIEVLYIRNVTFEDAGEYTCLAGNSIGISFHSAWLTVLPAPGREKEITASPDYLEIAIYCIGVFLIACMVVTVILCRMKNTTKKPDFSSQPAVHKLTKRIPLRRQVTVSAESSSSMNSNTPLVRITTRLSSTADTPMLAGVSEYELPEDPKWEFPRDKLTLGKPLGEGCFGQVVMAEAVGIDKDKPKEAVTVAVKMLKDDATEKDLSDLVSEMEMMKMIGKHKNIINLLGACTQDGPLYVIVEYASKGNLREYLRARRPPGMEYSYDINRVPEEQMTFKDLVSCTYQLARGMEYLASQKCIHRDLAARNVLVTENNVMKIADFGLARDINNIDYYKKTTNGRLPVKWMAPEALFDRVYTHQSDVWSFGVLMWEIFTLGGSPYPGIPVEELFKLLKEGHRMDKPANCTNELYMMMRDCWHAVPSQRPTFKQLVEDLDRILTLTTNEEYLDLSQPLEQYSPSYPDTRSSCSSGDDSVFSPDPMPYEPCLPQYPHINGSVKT
Sequence of Mast/stem cell growth factor receptor Kit (Homo sapiens), P10721 [V559D] (P10721 whole entry V559D): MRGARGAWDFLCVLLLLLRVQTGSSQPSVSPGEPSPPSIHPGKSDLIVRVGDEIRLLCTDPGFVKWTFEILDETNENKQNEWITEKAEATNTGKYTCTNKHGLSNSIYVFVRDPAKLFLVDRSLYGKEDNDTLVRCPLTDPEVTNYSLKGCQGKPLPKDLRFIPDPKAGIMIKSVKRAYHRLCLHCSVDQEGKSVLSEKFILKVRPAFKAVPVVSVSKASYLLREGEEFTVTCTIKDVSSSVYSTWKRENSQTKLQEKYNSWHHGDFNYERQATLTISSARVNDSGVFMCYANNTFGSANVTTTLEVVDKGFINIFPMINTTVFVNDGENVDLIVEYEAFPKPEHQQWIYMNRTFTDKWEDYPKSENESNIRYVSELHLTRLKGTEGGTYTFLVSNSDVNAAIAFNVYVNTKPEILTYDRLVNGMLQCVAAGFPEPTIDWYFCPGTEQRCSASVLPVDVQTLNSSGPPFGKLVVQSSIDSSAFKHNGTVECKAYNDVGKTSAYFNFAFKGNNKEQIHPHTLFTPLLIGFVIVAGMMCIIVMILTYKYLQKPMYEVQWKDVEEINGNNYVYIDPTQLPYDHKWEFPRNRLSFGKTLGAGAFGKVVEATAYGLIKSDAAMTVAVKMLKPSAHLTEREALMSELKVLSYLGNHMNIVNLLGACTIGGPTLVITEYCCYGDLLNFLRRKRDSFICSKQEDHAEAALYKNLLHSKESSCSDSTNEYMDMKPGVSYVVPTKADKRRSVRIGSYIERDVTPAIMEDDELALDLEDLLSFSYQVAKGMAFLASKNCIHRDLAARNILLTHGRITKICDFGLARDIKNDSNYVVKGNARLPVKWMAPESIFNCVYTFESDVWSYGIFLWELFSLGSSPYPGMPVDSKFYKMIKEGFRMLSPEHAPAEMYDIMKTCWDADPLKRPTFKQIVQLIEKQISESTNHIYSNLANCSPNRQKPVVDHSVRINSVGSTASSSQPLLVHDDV
Sequence of Ephrin type-A receptor 4 (Homo sapiens) (P54764 whole entry): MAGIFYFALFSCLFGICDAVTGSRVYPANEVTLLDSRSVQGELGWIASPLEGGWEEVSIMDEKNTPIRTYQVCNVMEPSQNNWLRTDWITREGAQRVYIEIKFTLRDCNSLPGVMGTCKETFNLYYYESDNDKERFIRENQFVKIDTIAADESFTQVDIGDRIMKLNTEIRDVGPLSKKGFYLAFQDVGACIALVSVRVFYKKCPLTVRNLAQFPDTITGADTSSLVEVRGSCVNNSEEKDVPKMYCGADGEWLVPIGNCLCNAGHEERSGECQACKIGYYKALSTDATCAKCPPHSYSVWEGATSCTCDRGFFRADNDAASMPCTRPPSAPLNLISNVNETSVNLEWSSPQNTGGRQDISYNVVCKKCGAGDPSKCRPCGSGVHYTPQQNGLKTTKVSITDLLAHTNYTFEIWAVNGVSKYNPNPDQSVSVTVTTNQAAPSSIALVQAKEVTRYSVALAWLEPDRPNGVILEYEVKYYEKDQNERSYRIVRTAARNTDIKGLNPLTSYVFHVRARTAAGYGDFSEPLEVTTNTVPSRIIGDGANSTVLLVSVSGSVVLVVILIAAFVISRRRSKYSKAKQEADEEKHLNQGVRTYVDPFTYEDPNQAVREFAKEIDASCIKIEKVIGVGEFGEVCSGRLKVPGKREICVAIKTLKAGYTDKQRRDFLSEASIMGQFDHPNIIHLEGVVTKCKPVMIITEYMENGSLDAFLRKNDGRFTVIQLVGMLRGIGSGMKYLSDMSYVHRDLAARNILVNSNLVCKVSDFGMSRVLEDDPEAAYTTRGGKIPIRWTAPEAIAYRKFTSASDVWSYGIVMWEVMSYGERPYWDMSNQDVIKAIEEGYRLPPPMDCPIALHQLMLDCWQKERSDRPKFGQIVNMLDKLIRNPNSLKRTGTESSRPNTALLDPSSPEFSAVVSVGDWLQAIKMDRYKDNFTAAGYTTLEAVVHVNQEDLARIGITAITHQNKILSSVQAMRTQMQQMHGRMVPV
Sequence of Serine/threonine-protein kinase PAK 5 (Homo sapiens) (Q9P286 whole entry, looked up): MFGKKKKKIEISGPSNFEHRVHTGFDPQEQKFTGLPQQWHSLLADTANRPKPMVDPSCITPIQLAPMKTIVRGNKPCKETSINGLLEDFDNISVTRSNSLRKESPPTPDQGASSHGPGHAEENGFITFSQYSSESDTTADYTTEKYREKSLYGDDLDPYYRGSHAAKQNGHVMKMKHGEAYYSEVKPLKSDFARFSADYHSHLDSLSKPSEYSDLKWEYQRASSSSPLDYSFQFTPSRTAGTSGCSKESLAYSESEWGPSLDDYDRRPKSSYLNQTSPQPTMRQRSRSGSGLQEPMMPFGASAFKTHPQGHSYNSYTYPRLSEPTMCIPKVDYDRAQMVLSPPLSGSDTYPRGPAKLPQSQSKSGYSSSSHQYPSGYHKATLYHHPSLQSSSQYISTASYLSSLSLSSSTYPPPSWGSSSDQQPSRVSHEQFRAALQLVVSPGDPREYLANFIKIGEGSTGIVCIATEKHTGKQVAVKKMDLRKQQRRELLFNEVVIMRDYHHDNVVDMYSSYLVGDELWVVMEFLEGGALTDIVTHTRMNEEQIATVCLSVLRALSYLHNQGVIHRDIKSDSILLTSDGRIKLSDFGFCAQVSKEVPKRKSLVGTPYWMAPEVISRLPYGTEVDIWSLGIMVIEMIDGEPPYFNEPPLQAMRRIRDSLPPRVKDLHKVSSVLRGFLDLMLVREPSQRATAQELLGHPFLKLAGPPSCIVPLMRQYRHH
Sequence of Tyrosine-protein kinase Fer (Homo sapiens) (P16591 whole entry, looked up): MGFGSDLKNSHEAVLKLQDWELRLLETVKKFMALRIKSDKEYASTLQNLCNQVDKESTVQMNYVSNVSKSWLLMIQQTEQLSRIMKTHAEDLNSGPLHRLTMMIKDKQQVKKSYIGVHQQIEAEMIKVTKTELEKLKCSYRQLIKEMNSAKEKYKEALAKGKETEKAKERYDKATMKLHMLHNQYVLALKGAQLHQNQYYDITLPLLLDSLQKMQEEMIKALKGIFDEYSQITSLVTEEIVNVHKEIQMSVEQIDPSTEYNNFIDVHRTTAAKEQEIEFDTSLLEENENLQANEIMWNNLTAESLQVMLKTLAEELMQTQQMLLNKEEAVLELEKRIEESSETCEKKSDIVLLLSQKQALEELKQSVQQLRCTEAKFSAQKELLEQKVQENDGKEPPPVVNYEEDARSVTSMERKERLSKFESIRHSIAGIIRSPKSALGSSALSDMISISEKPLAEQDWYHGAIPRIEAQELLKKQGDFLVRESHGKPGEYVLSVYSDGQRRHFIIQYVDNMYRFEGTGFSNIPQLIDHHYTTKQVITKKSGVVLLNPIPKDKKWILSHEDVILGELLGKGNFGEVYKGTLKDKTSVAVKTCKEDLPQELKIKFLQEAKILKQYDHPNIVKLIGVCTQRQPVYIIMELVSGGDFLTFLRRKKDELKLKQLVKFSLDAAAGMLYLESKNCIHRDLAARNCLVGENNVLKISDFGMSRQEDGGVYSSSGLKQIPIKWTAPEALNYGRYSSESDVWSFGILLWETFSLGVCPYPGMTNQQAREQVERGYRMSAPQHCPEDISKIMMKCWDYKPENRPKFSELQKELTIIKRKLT
Sequence of Myosin light chain kinase family member 4 (Homo sapiens) (Q86YV6 whole entry): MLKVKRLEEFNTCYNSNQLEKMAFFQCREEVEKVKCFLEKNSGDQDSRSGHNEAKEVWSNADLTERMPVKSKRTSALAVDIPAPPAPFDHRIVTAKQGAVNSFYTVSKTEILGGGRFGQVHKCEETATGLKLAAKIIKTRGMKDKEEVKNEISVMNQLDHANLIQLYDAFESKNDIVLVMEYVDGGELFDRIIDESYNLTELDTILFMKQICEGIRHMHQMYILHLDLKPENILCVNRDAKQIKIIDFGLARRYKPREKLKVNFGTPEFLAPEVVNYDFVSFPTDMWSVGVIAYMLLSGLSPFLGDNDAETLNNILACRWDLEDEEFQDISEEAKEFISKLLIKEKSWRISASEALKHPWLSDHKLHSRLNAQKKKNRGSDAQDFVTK
Sequence of Cyclin-dependent kinase 5 (Homo sapiens) (Q00535 whole entry, looked up): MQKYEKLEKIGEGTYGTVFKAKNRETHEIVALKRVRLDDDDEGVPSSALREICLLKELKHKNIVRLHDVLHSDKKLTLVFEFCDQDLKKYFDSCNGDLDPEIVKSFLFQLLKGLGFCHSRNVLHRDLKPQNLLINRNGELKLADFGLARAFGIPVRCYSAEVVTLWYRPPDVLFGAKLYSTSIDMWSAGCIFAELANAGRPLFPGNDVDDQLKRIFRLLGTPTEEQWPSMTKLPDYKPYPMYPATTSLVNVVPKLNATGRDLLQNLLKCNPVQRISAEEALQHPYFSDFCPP

With CCN1CCN(Cc2ccc(NC(=O)c3ccc(C)c(C#Cc4cnc5[nH]ccc5c4)c3)cc2C(F)(F)F)CC1 the residual binding, % of control [1] was 0.25%, the inhibition [2] was 33% and the residual binding, % of control [3] was 0.2%. For the same compound, the level, % of control [4] was 100%, the inhibition [5] was 59% and the level, % of control [6] was 0.05%. It also gave a level, % of control [7] of 24%, a residual binding, % of control [8] of 30% and a residual binding, % of control [9] of 64%. It also gave an inhibition [10] of 49%, a % of control [11] of 5.7% and a % of control [12] of 18%. The inhibition [13] was 96%, the inhibition [14] was 42% and the residual binding, % of control [15] was 100%. It also gave a residual binding, % of control [16] of 0.15%, a level, % of control [17] of 3% and a level, % of control [18] of 7.8%. For the same compound, the residual binding, % of control [19] was 7.2%, the residual binding, % of control [20] was 2.6% and the residual binding, % of control [21] was 21%. It also gave a residual binding, % of control [22] of 100%, an inhibition [23] of 84% and a residual binding, % of control [24] of 1.9%. For the same compound, the residual binding, % of control [25] was 100%, the inhibition [26] was 12% and the residual binding, % of control [27] was 0%. It also gave an inhibition [28] of 40%, a residual binding, % of control [29] of 0% and a residual binding, % of control [30] of 82%. The residual binding, % of control [31] was 0.5%, the level, % of control [32] was 100% and the residual binding, % of control [33] was 69%. For the same compound, the inhibition [34] was 11%, the level, % of control [35] was 2.2% and the inhibition [36] was 76%. The residual binding, % of control [37] was 100%, the residual binding, % of control [38] was 62% and the residual binding, % of control [39] was 0.05%. It also gave a level, % of control [40] of 23% and an inhibition [41] of 18%.

CCN1CCN(Cc2ccc(NC(=O)c3ccc(C)c(C#Cc4cccnc4)c3)cc2C(F)(F)F)CC1 showed a residual binding, % of control [1] of 0%, an inhibition [2] of 4% and a residual binding, % of control [3] of 0.05%. The level, % of control [4] was 100%, the inhibition [5] was 73% and the level, % of control [6] was 0.05%. For the same compound, the level, % of control [7] was 10%, the residual binding, % of control [8] was 65% and the residual binding, % of control [9] was 83%. For the same compound, the inhibition [10] was 53%, the % of control [11] was 2.7% and the % of control [12] was 60%. For the same compound, the inhibition [13] was 100%, the inhibition [14] was 100% and the residual binding, % of control [15] was 100%. The residual binding, % of control [16] was 0.25%, the level, % of control [17] was 3% and the level, % of control [18] was 7.4%. The residual binding, % of control [19] was 4.2%, the residual binding, % of control [20] was 11% and the residual binding, % of control [21] was 54%. For the same compound, the residual binding, % of control [22] was 88%, the inhibition [23] was 99% and the residual binding, % of control [24] was 0.65%. The residual binding, % of control [25] was 100%, the inhibition [26] was 23% and the residual binding, % of control [27] was 0%. The inhibition [28] was 68%, the residual binding, % of control [29] was 0% and the residual binding, % of control [30] was 100%. For the same compound, the residual binding, % of control [31] was 0.5%, the level, % of control [32] was 100% and the residual binding, % of control [33] was 53%. The inhibition [34] was 8.7%, the level, % of control [35] was 44% and the inhibition [36] was 68%. The residual binding, % of control [37] was 100%, the residual binding, % of control [38] was 100% and the residual binding, % of control [39] was 0%. For the same compound, the level, % of control [40] was 96% and the inhibition [41] was 21%.
